Where two headings read alike, the source gives them in different places.
How the values were obtained:
[1] = tested on: IL-10-induced JAK1/TYK2 signal pathway; test: IL-10-induced JAK1/TYK2 signal pathway STAT3-Luc reporter gene assay in U2OS cells; format: cell-based, human; conditions: Homo sapiens, read-out: Half inhibition dose (IC50) on IL-10-induced JAK1/TYK2 signal pathway
Outline: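 U2OS cells co-transfected with IL-10R1-EGFP and STAT3-luciferase reporter plasmids; after 24 h, compound added (0–300 nM) for 6 h before 10 ng/mL human IL-10, then 24 h culture. Luciferase signal normalised to GFP for transfection efficiency; IC50 from inhibition rates.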

[2] = tested on: IL-2-induced JAK1/JAK3 signal pathway; test: IL-2-induced proliferation of KHYG-1 cells (JAK1/JAK3 signal); format: cell-based, human; conditions: Homo sapiens; KHYG-1 cell proliferation, IL-2 10 ng/mL, 72 hours; read-out: Inhibition activity IC50 on IL-2-induced JAK1/JAK3 signal pathway
Outline: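 KHYG-1 NK lymphoma cells were cultured with IL-2 and test compound at various doses for 72 h at 37 °C and 5% CO2, and proliferation was read with alamarBlue fluorescence. Inhibition was normalized to wells without compound or cytokine (0%) and IL-2 wells without compound (100%), and C50 was derived from the dose-inhibition data.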

[3] = tested on: EPO-induced JAK2 signal pathway; test: EPO-induced proliferation of UT-7 cells (JAK2 signal); format: cell-based, human; conditions: Homo sapiens, UT7; UT-7 cell proliferation, EPO 10 ng/mL, 72 hours; read-out: Inhibition activity IC50 on EPO-induced JAK2 signal pathway
Outline: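 UT-7 cells (15000/well) stimulated with 10 ng/mL human recombinant EPO plus compound at final 0, 100, 1000 or 10000 nM, 72 h at 37° C., 5% CO2. Proliferation by alamarBlue fluorescence (Ex530/Em590); inhibition normalised to no-cytokine/no-compound (0) and EPO-only (100) wells, […] derived from dose-inhibition.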

TYK2 JH2 domain = TYK2 JH2 domain (Homo sapiens (Human), UniProt P29597); test: TYK2 JH2 domain FRET tracer assay; format: binding; conditions: FRET 665/615 nm; read-out: Inhibition activity IC50 on TYK2 JH2 domain
Sequence of TYK2 JH2 domain (P29597 589-875): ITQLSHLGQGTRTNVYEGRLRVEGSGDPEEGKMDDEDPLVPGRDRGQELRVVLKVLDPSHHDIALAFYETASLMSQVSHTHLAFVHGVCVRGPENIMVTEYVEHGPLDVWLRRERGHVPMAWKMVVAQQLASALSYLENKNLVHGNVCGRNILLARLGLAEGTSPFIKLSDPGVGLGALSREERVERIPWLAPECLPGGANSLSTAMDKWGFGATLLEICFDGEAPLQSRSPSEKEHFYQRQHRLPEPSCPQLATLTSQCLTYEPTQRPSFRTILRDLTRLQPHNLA
Description: Compound of the present invention formulated into different concentrations (series 3 times dilutions, started from 60 μM, 11 concentrations in total) was added to 384-well plate, followed by 5 μL of enzyme (i.e., TYK2 JH2 domain), Tb antibody (Cisbio) and tracer. The mixture was incubated at 25° C. for 60 min and left at 4° C. overnight.

[4] = U2OS, U2OS cells, STAT3-Luc reporter, IL-10 10 ng/mL
[5] = U2OS cells, STAT3-Luc reporter, IL-10 10 ng/mL

Compound | IC50 [1, 4] [nM] | IC50 [2] [µM] | IC50 [3] [µM] | IC50 (TYK2 JH2 domain) [nM] | IC50 [1, 5] [nM] | IC50 ([1]; U2OS) [nM]
CCONC(=O)c1cnc(Nc2cc(C)nc(C)n2)cc1Nc1ccc(C2CC2)cc1N(C)S(C)(=O)=O [Example 21, 4-((4-cyclopropyl-2-(N-methylmethanesulfonamido)phenyl)amino)-6-((2,6-dimethylpyrimidin-4-yl)amino)-N-ethoxy nicotinamide] | 0.421 | > 10 | > 10 | 0.05 | – | –
CCONC(=O)c1cnc(Nc2cc(C)nc(C)n2)cc1Nc1cc(F)c(C2CC2)cc1N(C)S(C)(=O)=O [Example 98] | 1.51 | > 10 | > 10 | 0.09 | – | –
CCONC(=O)c1cnc(Nc2cc(C)nc(C)n2)cc1Nc1ccc(Cl)cc1N(C)S(C)(=O)=O [Example 115, 4-((4-chloro-2-(N-methylmethanesulfonamido)phenyl)amino)-6-((2,6-dimethylpyrimidin-4-yl)amino)-N-ethoxy nicotinamide] | 0.261 | > 10 | > 10 | 0.07 | – | –
CCONC(=O)c1cnc(Nc2cc(C)nc(C)n2)cc1Nc1ccc(OCC)cc1N(C)S(C)(=O)=O [Example 181] | 0.56 | > 10 | > 10 | 0.08 | – | –
CCONC(=O)c1cnc(Nc2cc(C)nc(C)n2)cc1Nc1ccc(C)nc1N(C)S(C)(=O)=O [Example 186] | 0.276 | > 10 | > 10 | 0.07 | – | –
CCONC(=O)c1cnc(Nc2ccnc(C)n2)cc1Nc1ccc(C2CC2)cc1N(C)S(C)(=O)=O [Example 192, 4-((4-cyclopropyl-2-(N-methylmethanesulfonamido)phenyl)amino)-N-ethoxy-6-((2-methylpyrimidin-4-yl)amino)nicotinamide] | 0.458 | > 10 | > 10 | 0.08 | – | –
CCONC(=O)c1cnc(Nc2cc(C)nc(C)n2)cc1Nc1cc(F)c(CC)cc1N(C)S(C)(=O)=O [Example 193, 6-((2,6-dimethylpyrimidin-4-yl)amino)-N-ethoxy-4-((4-ethyl-5-fluoro-2-(N-methylmethanesulfonamido)phenyl)amino)nicotinamide] | 0.647 | > 10 | > 10 | 0.06 | – | –
CCONC(=O)c1cnc(Nc2ccnc(C)n2)cc1Nc1cc(F)c(C2CC2)cc1N(C)S(C)(=O)=O [Example 194, 4-((4-cyclopropyl-5-fluoro-2-(N-methylmethanesulfonamido)phenyl)amino)-N-ethoxy-6-((2-methylpyrimidin-4-yl)amino)nicotinamide] | 0.6 | > 10 | > 10 | 0.08 | – | –
CCONC(=O)c1cnc(Nc2cc(C)nc(C)n2)cc1Nc1cc(F)c(Cl)cc1N(C)S(C)(=O)=O [Example 198, 4-((4-chloro-5-fluoro-2-(N-methylmethanesulfonamido)phenyl)amino)-6-((2,6-dimethylpyrimidin-4-yl)amino)-N-ethoxy nicotinamide] | 0.65 | > 10 | > 10 | 0.08 | – | –
CCONC(=O)c1cnc(Nc2ccnc(OC)n2)cc1Nc1cc(F)c(Cl)cc1N(C)S(C)(=O)=O [Example 200, 4-((4-chloro-5-fluoro-2-(N-methylmethanesulfonamido)phenyl)amino)-N-ethoxy-6-((2-methoxypyrimidin-4-yl)amino)nicotinamide] | 0.42 | > 10 | > 10 | 0.06 | – | –
CCONC(=O)c1cnc(Nc2cc(C)nc(C)n2)cc1Nc1ccc(C(C)C)cc1N(C)S(C)(=O)=O [Example 201, 6-((2,6-dimethylpyrimidin-4-yl)amino)-N-ethoxy-4-((4-isopropyl-2-(N-methylmethanesulfonamido)phenyl)amino)nicotinamide] | – | > 10 | > 10 | 0.06 | 0.541 | –
CCONC(=O)c1cnc(Nc2cc(C)nc(C)n2)cc1Nc1cc(F)cc(-c2ncn(C3CC3)n2)c1OC [Example 204] | 0.534 | > 10 | > 10 | 0.06 | – | –
CCONC(=O)c1cnc(Nc2cc(C)nc(C)n2)cc1Nc1cc(F)c(C(C)C)cc1N(C)S(C)(=O)=O [Example 229, 6-((2,6-dimethylpyrimidin-4-yl)amino)-N-ethoxy-4-((5-fluoro-4-isopropyl-2-(N-methylmethanesulfonamido)phenyl)amino)nicotinamide] | 0.424 | > 10 | > 10 | 0.05 | – | –
CCONC(=O)c1cnc(Nc2ncc(F)cc2F)cc1Nc1cccc(-c2ncccn2)c1OC [Example 242, 6-((3,5-difluoropyridin-2-yl)amino)-N-ethoxy-4-((2-methoxy-3-(pyrimidin-2-yl)phenyl)amino)nicotinamide] | – | > 10 | > 10 | – | 2.12 | –
CCONC(=O)c1cnc(Nc2ccnc(C)n2)cc1Nc1cccc(-c2ncc(F)cn2)c1OC [Example 243, N-ethoxy-4-((3-(5-fluoropyrimidin-2-yl)-2-methoxyphenyl)amino)-6-((2-methylpyrimidin-4-yl)amino)nicotinamide] | 0.507 | > 10 | > 10 | – | – | –
CCONC(=O)c1cnc(Nc2ncc(F)cc2F)cc1Nc1cc(F)cc(-c2ncn(C3CC3)n2)c1OC [Example 244, 4-((3-(1-cyclopropyl-1H-1,2,4-triazol-3-yl)-5-fluoro-2-methoxyphenyl)amino)-6-((3,5-difluoropyridin-2-yl)amino)-N-ethoxy nicotinamide] | 2.58 | > 10 | > 10 | – | – | –
CCONC(=O)c1cnc(Nc2ccnc(C)n2)cc1Nc1cc(F)cc(-c2ncn(C3CC3)n2)c1OC [Example 245, 4-((3-(1-cyclopropyl-1H-1,2,4-triazol-3-yl)-5-fluoro-2-methoxyphenyl)amino)-N-ethoxy-6-((2-methylpyrimidin-4-yl)amino)nicotinamide] | 1.92 | > 10 | > 10 | – | – | –
CCONC(=O)c1cnc(Nc2cc(C)nc(C)n2)cc1Nc1cc(F)cc(-c2cnccn2)c1OC [Example 258, 6-((2,6-dimethylpyrimidin-4-yl)amino)-N-ethoxy-4-((5-fluoro-2-methoxy-3-(pyrazin-2-yl)phenyl)amino)nicotinamide] | 2.15 | > 10 | > 10 | – | – | –
CCONC(=O)c1cnc(Nc2cc(C)nc(C)n2)cc1Nc1cccc(-c2ncn(C)n2)c1OC [Example 268, 6-((2,6-dimethylpyrimidin-4-yl)amino)-N-ethoxy-4-((2-methoxy-3-(1-methyl-1H-1,2,4-triazol-3-yl)phenyl)amino)nicotinamide] | 0.315 | > 10 | > 10 | – | – | –
[2H]C([2H])([2H])Oc1c(Nc2cc(Nc3cc(C)nc(C)n3)ncc2C(=O)NOCC)cccc1-c1ncc(F)cn1 [Example 273, 6-((2,6-dimethylpyrimidin-4-yl)amino)-N-ethoxy-4-((3-(5-fluoropyrimidin-2-yl)-2-(methoxy-d3)phenyl)amino)nicotinamide] | 2.19 | > 10 | > 10 | – | – | –
[2H]C([2H])([2H])Oc1c(Nc2cc(Nc3cc(C)nc(C)n3)ncc2C(=O)NOCC)cccc1-c1ncccn1 [Example 279, 6-((2,6-dimethylpyrimidin-4-yl)amino)-N-ethoxy-4-((2-(methoxy-d3)-3-(pyrimidin-2-yl)phenyl)amino)nicotinamide] | – | > 10 | > 10 | – | – | 0.529
